Source: ChEMBL document CHEMBL1140974, “Synthesis and antimalarial activity of semicarbazone and thiosemicarbazone derivatives” (Eur J Med Chem, 2008)
Calls of active or inactive are those of the source. The calls are words filed in the database; no cut-off is given here.

Assays:
Plasmodium berghei [1] = test: Antiplasmodial activity after 5 days as reduced parasitaemia in Plasmodium berghei NK65 infected BALB/c mice (Mus musculus) at 5 mg/kg/day for 4 days; type: functional; parameters: scale not given: the % may be the effect or the level left
Plasmodium berghei [2] = test: Antiplasmodial activity as reduced parasitaemia after 7 days in Plasmodium berghei NK65 infected BALB/c mice (Mus musculus) at 10 mg/kg/day over 4 days; type: functional; parameters: scale not given: the % may be the effect or the level left
PBMC [3] = test: Antiproliferative activity against PHA-stimulated human PBMC at 20 ug/mL after 72 hrs by MTT assay relative to control; type: cell-based
Plasmodium berghei [4] = test: Antiplasmodial activity as reduced parasitaemia after 5 day sin Plasmodium berghei NK65 infected BALB/c mice (Mus musculus) at 10 mg/kg/day over 4 days; type: functional; parameters: scale not given: the % may be the effect or the level left
Plasmodium berghei [5] = test: Antiplasmodial activity as reduced parasitaemia after 5 days in Plasmodium berghei NK65 infected BALB/c mice (Mus musculus) at 15 mg/kg/day over 4 days; type: functional; parameters: scale not given: the % may be the effect or the level left
Plasmodium berghei [6] = test: Antiplasmodial activity as reduced parasitaemia after 7 days in Plasmodium berghei NK65 infected BALB/c mice (Mus musculus) at 5 mg/kg/day over 4 days; type: functional; parameters: scale not given: the % may be the effect or the level left
Plasmodium falciparum [7] = test: Antimalarial activity against chloroquine-resistant Plasmodium falciparum W2 in human erythrocytes by [3H]hypoxanthine uptake; type: functional, organism-based
Plasmodium berghei [8] = test: Antiplasmodial activity as reduced parasitaemia after 7 days in Plasmodium berghei NK65 infected BALB/c mice (Mus musculus) at 20 mg/kg/day over 4 days; type: functional; parameters: scale not given: the % may be the effect or the level left
PBMC [9] = test: Antiproliferative activity against PHA-stimulated human PBMC after 72 hrs by MTT assay; type: cell-based
Plasmodium berghei [10] = test: Antiplasmodial activity as reduced parasitaemia after 7 days in Plasmodium berghei NK65 infected BALB/c mice (Mus musculus) at 15 mg/kg/day over 4 days; type: functional; parameters: scale not given: the % may be the effect or the level left
Plasmodium berghei [11] = test: Antiplasmodial activity as reduced parasitaemia after 5 days in Plasmodium berghei NK65 infected BALB/c mice (Mus musculus) at 20 mg/kg/day over 4 days; type: functional; parameters: scale not given: the % may be the effect or the level left
Plasmodium falciparum [12] = test: Antimalarial activity against chloroquine-resistant Plasmodium falciparum W2 in human erythrocytes at 20 ug/mL by [3H]hypoxanthine uptake; type: functional

SMILES	Activity (PBMC [3]) [%]	inhibition at 20 µg/mL (Plasmodium falciparum [12]) [%]	Activity (Plasmodium falciparum [12])	also measured
CC1(C)C2CC=C(/C=N/NC(N)=S)C1C2 (stereo not drawn)	76	95		Activity (Plasmodium berghei [1]): 0%; Activity (Plasmodium berghei [2]): 32%; Activity (Plasmodium berghei [4]): 36%; Activity (Plasmodium berghei [5]): 93%; Activity (Plasmodium berghei [6]): 8%; IC50 (Plasmodium falciparum [7]): 7.2 µM; Activity (Plasmodium berghei [8]): 61%; IC50 (PBMC [9]): 73.5 µM; Activity (Plasmodium berghei [10]): 94.5%; Activity (Plasmodium berghei [11]): 77.5%
CC(C)=CCC/C(C)=N\NC(N)=S	98	100		IC50 (Plasmodium falciparum [7]): 12.6 µM; IC50 (PBMC [9]): 35.2 µM
CN(C)c1ccc(/C=N/NC(N)=O)cc1	84		inactive	
CC/C(=N/NC(N)=O)C(C)CC=C(C)C (stereo not drawn)	0		inactive	
COc1ccc(/C=N/NC(N)=O)cc1	141	38		
COc1ccc(/C=N/NC(N)=S)cc1	90		inactive	
COc1cc(/C=N/NC(N)=O)ccc1O	116		inactive	
CCN(CC)CCCC(C)Nc1ccnc2cc(Cl)ccc12 (stereo not drawn) [CHLOROQUINE]				IC50 (PBMC [9]): 5.1 µM
CCCC/C(CC)=N\NC(N)=O	89		inactive	
CC1(C)C2CC=C(/C=N/NC(N)=O)C1C2 (stereo not drawn)	110		inactive	
CC(C)=CCC/C(C)=N\NC(N)=O	107		inactive	
CC/C(=N/NC(N)=S)C(C)CC=C(C)C (stereo not drawn)	60	99		IC50 (Plasmodium falciparum [7]): 9.2 µM; IC50 (PBMC [9]): 31.3 µM
COc1ccc(/C=N/NC(N)=O)cc1OC	80	32		
COc1cc(/C=N/NC(N)=S)cc(OC)c1OC	78		inactive	
COc1cc(/C=N/NC(N)=O)cc(OC)c1OC	107		inactive	
